What was measured:
ROCK2 protein [1] = target: T1, ROCK2 protein (Homo sapiens, UniProt O75116); assay: Degradation inducing activity of ROCK2 protein in HUVEC cells, Western blotting (Simple Western JESS); format: cell-based; parameters: endogenous in cells; host or cells: HUVEC (ATCC CRL-1730); settings: HUVEC, 24 h; for inhibition at 1 µM: degradation rate at 1 µM; for inhibition at 10 µM: degradation rate at 10 µM
How it was run: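 HUVEC cells treated 24 h with compound at 10 µM or 1 µM, then lysed; ROCK2 quantified by capillary Western (Simple Western JESS) using rabbit mAb D1B1, normalized to total loaded protein. Degradation rate (%) calculated relative to DMSO control set at 100%, binned A ≥75%, B 50–75%, C 25–50%, D <25%.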
Target sequence in this assay (O75116 whole entry): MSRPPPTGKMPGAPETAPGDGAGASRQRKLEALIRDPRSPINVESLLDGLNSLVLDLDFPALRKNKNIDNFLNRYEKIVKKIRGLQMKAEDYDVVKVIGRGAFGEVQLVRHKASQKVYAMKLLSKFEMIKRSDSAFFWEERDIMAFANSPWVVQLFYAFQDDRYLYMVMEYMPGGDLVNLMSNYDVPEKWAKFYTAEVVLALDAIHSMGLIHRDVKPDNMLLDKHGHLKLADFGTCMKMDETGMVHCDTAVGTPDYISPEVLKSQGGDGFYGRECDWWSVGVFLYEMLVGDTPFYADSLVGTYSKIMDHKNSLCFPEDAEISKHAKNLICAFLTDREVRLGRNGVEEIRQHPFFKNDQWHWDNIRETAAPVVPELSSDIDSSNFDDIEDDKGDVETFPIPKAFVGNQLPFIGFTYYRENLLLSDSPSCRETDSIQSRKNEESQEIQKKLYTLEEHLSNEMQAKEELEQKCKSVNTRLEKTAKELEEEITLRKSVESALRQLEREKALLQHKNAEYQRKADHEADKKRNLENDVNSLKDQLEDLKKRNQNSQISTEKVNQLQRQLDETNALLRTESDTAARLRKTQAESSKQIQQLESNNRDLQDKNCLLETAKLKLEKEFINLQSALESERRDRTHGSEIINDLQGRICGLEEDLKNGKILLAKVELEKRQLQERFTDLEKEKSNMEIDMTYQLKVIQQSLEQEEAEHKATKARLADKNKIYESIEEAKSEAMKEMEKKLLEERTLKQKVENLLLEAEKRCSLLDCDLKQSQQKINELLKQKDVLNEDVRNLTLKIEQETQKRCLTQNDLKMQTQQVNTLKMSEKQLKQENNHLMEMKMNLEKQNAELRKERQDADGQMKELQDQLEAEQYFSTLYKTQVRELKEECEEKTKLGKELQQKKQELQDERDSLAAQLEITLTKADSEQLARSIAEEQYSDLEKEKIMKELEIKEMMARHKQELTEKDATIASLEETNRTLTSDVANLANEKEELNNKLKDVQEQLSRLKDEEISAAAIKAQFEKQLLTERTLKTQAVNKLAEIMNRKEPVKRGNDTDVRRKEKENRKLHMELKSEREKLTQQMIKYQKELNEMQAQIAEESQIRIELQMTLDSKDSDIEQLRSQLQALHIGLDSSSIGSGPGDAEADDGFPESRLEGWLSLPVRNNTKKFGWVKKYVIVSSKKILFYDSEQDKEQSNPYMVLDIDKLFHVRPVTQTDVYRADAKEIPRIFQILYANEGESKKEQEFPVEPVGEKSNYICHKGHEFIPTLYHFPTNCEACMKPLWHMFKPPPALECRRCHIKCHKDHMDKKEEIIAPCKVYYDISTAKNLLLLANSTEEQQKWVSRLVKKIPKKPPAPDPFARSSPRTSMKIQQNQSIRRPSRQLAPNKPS

ROCK2 protein [2] = target: T1, ROCK2 protein; assay: ROCK2 kinase inhibitory activity, mobility shift assay (MSA, Carna Biosciences); format: biochemical; parameters: GST (N); purchased Carna Biosciences, Inc; host or cells: baculovirus expression system; settings: for inhibition at 10 µM: evaluation concentration 10 µM; for inhibition at 0.03 µM: evaluation concentration 0.03 µM; for IC50: ROCK2 kinase
Method: The ROCK2 kinase inhibitory activity was measured using a mobility shift assay (MSA) provided by Carna Biosciences, Inc.
The test compound was dissolved in DMSO and further diluted with DMSO to prepare a solution having a concentration 100 times the evaluation concentration. The solution was further diluted 25 times with an assay buffer (20 mmol/L HEPES, 0.01% Triton (registered trademark) X-100, 1 mmol/L DTT, pH 7.5) to obtain a test compound solution.
The human ROCK2 kinase was expressed by fusing the catalytic domain (1 to 553 amino acids of Accession No. NP_004841.2) with GST at the N-terminus using the baculovirus expression system. GST-ROCK2 was purified by glutathione sepharose chromatography.
A 4-fold concentration substrate (LIMKtide, 1000 nmol/L) /ATP (5 µmol/L)/metal solution (Mg, 5 mmol/L) was prepared with kit buffer (20 mmol/L HEPES, 0.01% Triton (registered trademark) X-100, 5 mmol/L DTT, pH 7.5). A 2-fold concentration kinase solution was prepared with assay buffer. 5 µL of a 4-fold concentration test compound solution, 5 µL of a 4-fold concentration substrate/ATP/metal solution, and 10 µL of a 2-fold concentration kinase solution were mixed in a well of a polypropylene 384 well plate, and the mixture was reacted at room temperature for 1 hour. 70 µL of termination buffer (127 mmol/L HEPES, 0.01% Triton (registered trademark) X-100, 26.7 mmol/L EDTA-2Na, 1% DMSO, pH 7.5) was added to stop the reaction. The substrate peptide and the phosphorylated peptide in the reaction solution were separated and quantified using a LabChip (trademark) system (Perkin Elmer).
The kinase reaction was evaluated by the product ratio (P/(P + S)) calculated from the substrate peptide peak height (S) and the phosphorylated peptide peak height (P).
The average signal of the control well including all the reaction components was set to 0% suppression, the average signal of the background well (no enzyme added) was set to 100% suppression, and the inhibition rate was calculated from the average signal of the test compound test well.
The ROCK2 inhibition rate and the evaluation concentration of the test compound are shown in Table 4-1, and the IC50 value of the inhibitory activity is shown in Table 4-2. […]
Target sequence in this assay (O75116 1-553): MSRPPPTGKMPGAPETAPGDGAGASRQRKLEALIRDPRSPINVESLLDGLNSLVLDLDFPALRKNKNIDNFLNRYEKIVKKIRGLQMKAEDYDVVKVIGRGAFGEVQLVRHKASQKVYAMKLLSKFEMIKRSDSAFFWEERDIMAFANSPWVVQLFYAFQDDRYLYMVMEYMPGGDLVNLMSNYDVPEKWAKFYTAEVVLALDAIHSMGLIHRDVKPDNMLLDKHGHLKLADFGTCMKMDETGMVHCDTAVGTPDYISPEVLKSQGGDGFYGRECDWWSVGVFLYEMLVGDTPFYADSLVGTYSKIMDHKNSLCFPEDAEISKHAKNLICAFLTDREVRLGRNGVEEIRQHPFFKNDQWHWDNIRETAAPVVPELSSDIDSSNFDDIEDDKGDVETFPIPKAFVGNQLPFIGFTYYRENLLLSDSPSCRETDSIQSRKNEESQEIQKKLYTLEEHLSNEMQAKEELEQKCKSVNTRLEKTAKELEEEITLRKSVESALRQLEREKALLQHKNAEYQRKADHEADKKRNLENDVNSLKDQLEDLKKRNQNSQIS

[3] = read-out: ROCK2 inhibition rate

Row | Compound | inhibition at 1 µM (ROCK2 protein [1]) [%] | inhibition at 10 µM (ROCK2 protein [1]) [%] | IC50 (ROCK2 protein [2]) [nM] | further results
1 | COC[C@H]1CN[C@H](C)CN1CC(=O)N1CC(C)(C)c2ncc(Cc3cccc(OCCOCCOCCOCCOCCOCCOCCN[C@H](C)c4ccc(C(=O)Nc5ccncc5)cc4)c3)cc21 [Example 48, 4-((R)-23-(3-((1-(2-((2R,5R)-2-(Methoxymethyl)-5-methylpiperazin-1-yl)acetyl)-3,3-dimethyl-2,3-dihydro-1H-pyrrolo[3,2-b]pyridin-6-yl)methyl)phenoxy)-6,9,12,15,18,21-hexaoxa-3-azatricosan-2-yl)-N-(pyridin-4-yl)benzamide] | 50 to 75 | 50 to 75 |  | inhibition at 10 µM (ROCK2 protein [2]; [3]): ≥ 75%
2 | COCCOCCN[C@H](C)c1ccc(C(=O)Nc2ccncc2)cc1 [Ref.Example 10, (R)-4-(1-((2-(2-Methoxyethoxy)ethyl)amino)ethyl)-N-(pyridin-4-yl)benzamide, reference compound] |  |  | 3000 to 10000 | 
3 | COCCOCCNC[C@@H](C(=O)Nc1ccc2cnccc2c1)c1ccccc1 [Ref.Example 14, (S)-N-(Isoquinolin-6-yl)-3-((2-(2-methoxyethoxy)ethyl)amino)-2-phenylpropanamide, reference compound] |  |  | < 30 | 
4 | COCCOCCCNC[C@@H](C(=O)Nc1ccc2cnccc2c1)c1ccccc1 [Ref.Example 15, (S)-N-(Isoquinolin-6-yl)-3-((3-(2-methoxyethoxy)propyl)amino)-2-phenylpropanamide, reference compound] |  |  | < 30 | 
5 | COCCOCCN[C@H](Cc1cccc(F)c1)C(=O)Nc1ccc(-c2ccncc2)cc1 [Ref.Example 12, (R)-3-(3-Fluorophenyl)-2-((2-(2-methoxyethoxy)ethyl)amino)-N-(4-(pyridin-4-yl)phenyl)propanamide, reference compound] |  |  | 300 to 3000 | 
6 | COCCOCCCN[C@H](Cc1cccc(F)c1)C(=O)Nc1ccc(-c2ccncc2)cc1 [Ref.Example 13, (R)-3-(3-Fluorophenyl)-2-((3-(2-methoxyethoxy)propyl)amino)-N-(4-(pyridin-4-yl)phenyl)propanamide, reference compound] |  |  | 30 to 300 | 
7 | COCCOCCCN[C@H](C)c1ccc(C(=O)Nc2ccncc2)cc1 [Ref.Example 11, (R)-4-(1-((3-(2-Methoxyethoxy)propyl)amino)ethyl)-N-(pyridin-4-yl)benzamide, reference compound] |  |  | 3000 to 10000 | 
8 | COC[C@H]1CN[C@H](C)CN1CC(=O)N1CC(C)(C)c2ncc(Cc3cccc(OCCOCCOCCOCCOCCOCCOCCOCCNC[C@@H](C(=O)Nc4ccc5cnccc5c4)c4ccccc4)c3)cc21 [Example 63, (S)-N-(Isoquinolin-6-yl)-1-(3-((1-(2-((2R,5R)-2-(methoxymethyl)-5-methylpiperazin-1-yl)acetyl)-3,3-dimethyl-2,3-dihydro-1H-pyrrolo[3,2-b]pyridin-6-yl)methyl)phenoxy)-26-phenyl-3,6,9,12,15,18,21-heptaoxa-24-azaheptacosan-27-amide] | < 25 | 50 to 75 |  | 
9 | COC[C@H]1CN[C@H](C)CN1CC(=O)N1CC(C)(C)c2ncc(Cc3cccc(OCCOCCOCCOCCOCCOCCN[C@H](Cc4cccc(F)c4)C(=O)Nc4ccc(-c5ccncc5)cc4)c3)cc21 [Example 54, (R)-2-(3-Fluorobenzyl)-20-(3-((1-(2-((2R,5R)-2-(methoxymethyl)-5-methylpiperazin-1-yl)acetyl)-3,3-dimethyl-2,3-dihydro-1H-pyrrolo[3,2-b]pyridin-6-yl)methyl)phenoxy)-N-(4-(pyridin-4-yl)phenyl)-6,9,12,15,18-pentaoxa-3-azaicosanamide] | ≥ 75 | 25 to 50 |  | 
10 | COC[C@H]1CN[C@H](C)CN1CC(=O)N1CC(C)(C)c2ncc(Cc3ccccc3OCCOCCOCCOCCOCCOCCN[C@H](Cc3cccc(F)c3)C(=O)Nc3ccc(-c4ccncc4)cc3)cc21 [Example 75, (R)-2-(3-Fluorobenzyl)-20-(2-((1-(2-((2R,5R)-2-(methoxymethyl)-5-methylpiperazin-1-yl)acetyl)-3,3-dimethyl-2,3-dihydro-1H-pyrrolo[3,2-b]pyridin-6-yl)methyl)phenoxy)-N-(4-(pyridin-4-yl)phenyl)-6,9,12,15,18-pentaoxa-3-azaicosanamide] | < 25 | 50 to 75 |  | 

Now from value to compound, other results behind:

Row | inhibition at 1 µM (ROCK2 protein [1]) [%] | inhibition at 10 µM (ROCK2 protein [1]) [%] | IC50 (ROCK2 protein [2]) [nM] | Compound | further results
11 | 50 to 75 | ≥ 75 |  | C[C@@H]1CN(CC(=O)N2CC(C)(C)c3ncc(Cc4ccc(F)cc4)cc32)[C@@H](CN(C)CCOCCOCCOCCN[C@H](C)c2ccc(C(=O)Nc3ccncc3)cc2)CN1 [Example 3, 4-((R)-1-((2R,5R)-1-(2-(6-(4-Fluorobenzyl)-3,3-dimethyl-2,3-dihydro-1H-pyrrolo[3,2-b]pyridin-1-yl)-2-oxoethyl)-5-methylpiperazin-2-yl)-2-methyl-5,8,11-trioxa-2,14-diazahexadecan-15-yl)-N-(pyridin-4-yl)benzamide] | inhibition at 10 µM (ROCK2 protein [2]; [3]): ≥ 75%
12 | 50 to 75 | ≥ 75 |  | COC[C@H]1CN[C@H](C)CN1CC(=O)N1CC(C)(C)c2ncc(Cc3ccccc3OCCOCCOCCOCCNC[C@@H](C(=O)Nc3ccc4cnccc4c3)c3ccccc3)cc21 [Example 80, (S)-N-(Isoquinolin-6-yl)-1-(2-((1-(2-((2R,5R)-2-(methoxymethyl)-5-methylpiperazin-1-yl)acetyl)-3,3-dimethyl-2,3-dihydro-1H-pyrrolo[3,2-b]pyridin-6-yl)methyl)phenoxy)-14-phenyl-3,6,9-trioxa-12-azapentadecan-15-amide] | inhibition at 0.03 µM (ROCK2 protein [2]; [3]): 25 to 50%
13 | 25 to 50 | ≥ 75 |  | COC[C@H]1CN[C@H](C)CN1CC(=O)N1CC(C)(C)c2nc(CN(C)CCOCCNC[C@@H](C(=O)Nc3ccc4cnccc4c3)c3ccccc3)c(Cc3ccc(F)cc3)cc21 [Example 36, (S)-3-((2-(2-(((6-(4-Fluorobenzyl)-1-(2-((2R,5R)-2-(methoxymethyl)-5-methylpiperazin-1-yl)acetyl)-3,3-dimethyl-2,3-dihydro-1H-pyrrolo[3,2-b]pyridin-5-yl)methyl)(methyl)amino)ethoxy)ethyl)amino)-N-(isoquinolin-6-yl)-2-phenylpropanamide] | inhibition at 0.03 µM (ROCK2 protein [2]; [3]): 50 to 75%
14 | < 25 | ≥ 75 |  | C[C@@H]1CN(CC(=O)N2CC(C)(C)c3ncc(Cc4ccc(F)cc4)cc32)[C@@H](CN(C)CCOCCOCCN[C@H](Cc2cccc(F)c2)C(=O)Nc2ccc(-c3ccncc3)cc2)CN1 [Example 9, (R)-12-(3-Fluorobenzyl)-1-((2R,5R)-1-(2-(6-(4-fluorobenzyl)-3,3-dimethyl-2,3-dihydro-1H-pyrrolo[3,2-b]pyridin-1-yl)-2-oxoethyl)-5-methylpiperazin-2-yl)-2-methyl-N-(4-(pyridin-4-yl)phenyl)-5,8-dioxa-2,11-diazatridecan-13-amide] | inhibition at 1 µM (ROCK2 protein [2]; evaluation concentration 1 µM, read-out: ROCK2 inhibition rate): 25 to 50%
15 | 25 to 50 | ≥ 75 |  | C[C@@H]1CN(CC(=O)N2CC(C)(C)c3ncc(Cc4ccc(F)cc4)cc32)[C@@H](CN(C)CCOCCOCCNC[C@@H](C(=O)Nc2ccc3cnccc3c2)c2ccccc2)CN1 [Example 16, (S)-1-((2R,5R)-1-(2-(6-(4-Fluorobenzyl)-3,3-dimethyl-2,3-dihydro-1H-pyrrolo[3,2-b]pyridin-1-yl)-2-oxoethyl)-5-methylpiperazin-2-yl)-N-(isoquinolin-6-yl)-2-methyl-13-phenyl-5,8-dioxa-2,11-diazatetradecan-14-amide] | inhibition at 0.03 µM (ROCK2 protein [2]; [3]): 50 to 75%
16 | 25 to 50 | ≥ 75 |  | C[C@@H]1CN(CC(=O)N2CC(C)(C)c3ncc(Cc4ccc(F)cc4)cc32)[C@@H](CN(C)CCOCCOCCOCCN[C@H](Cc2cccc(F)c2)C(=O)Nc2ccc(-c3ccncc3)cc2)CN1 [Example 10, (R)-15-(3-Fluorobenzyl)-1-((2R,5R)-1-(2-(6-(4-fluorobenzyl)-3,3-dimethyl-2,3-dihydro-1H-pyrrolo[3,2-b]pyridin-1-yl)-2-oxoethyl)-5-methylpiperazin-2-yl)-2-methyl-N-(4-(pyridin-4-yl)phenyl)-5,8,11-trioxa-2,14-diazahexadecan-16-amide] | 
